# Source: patent publication EP1301165B1, “USE OF AN ALLOMELANIN FOR THE TREATMENT OF INFLAMMATION OR IRRITANCY CAUSED BY DHA AND/OR A SURFACTANT” (Croda Chemicals International Limited, priority 2000, dated 2002)
# Experiments:
# [1] = Fragrance stabilisation test (eau de toilette, daily 37°C / 4°C / sunlight cycle for 7 days, aroma assessed); details: daily cycle repeated for 7 days
# Procedure: To test the stability of a fragrance in the form of an eau de toilette ("EDT"), we use aliquots of the EDT to which are added two or more concentrations of our melanin ("EDT'') and, as reference examples, two concentrations of BHT (butyrated hydroxytoluene, a known antioxidant used in cosmetics). A further aliquot of the original eau de toilette is used as a control. Test samples are made in clear glass bottles that are half filled with the test samples. This is to allow some penetration of UV light and sufficient gas in the headspace to allow oxidative deterioration of the fragrance to occur.
# Samples are stored at 37°C overnight, then are cooled to 4°C and then allowed to stand in direct sunlight, for the rest of the day, being returned to 37°C. In addition bottles are opened before and after the 37°C incubation. This daily cycle is repeated for 7 days and the aromas of each assessed.
# skin = assay: Surfactant sensitivity: skin irritation by 24 hour SLES patch, skin colour by Chroma Meter; type: in vivo, human
# Procedure: The effectiveness of our melanin in reducing skin irritation due to a surfactant was investigated. Two human subjects were used. The effect of applying to skin for 24 hours a patch containing a 70% solution of sodium lauryl ether sulphate ('SLES') was compared with the effect of applying an identical patch also containing 0.3% of our melanin ('M'). The colour of the treated skin was monitored for several days using a Chroma Meter. The changes in degrees of redness are tabulated below.
# Water solubility = type: physicochemical
# Source text: In contrast, conventional melanins are virtually insoluble. Our melanin derived from caffeic acid has a solubility of about 220g/l. Since caffeic acid has a solubility of below 1g/l, and polymerisation generally leads to a reduction in solubility, this is quite remarkable.
molecule,measurement,setting,value
"Cc1cc(C(C)(C)C)c(O)c(C(C)(C)C)c1 [BHT, butyrated hydroxytoluene]",fragrance stability (aroma),[1],markedly superior to the control
sodium lauryl ether sulphate [SLES],Redness Change,"skin; Subject 1, Day 1, patch applied for 24 hours",+6.3
same,Redness Change,"skin; Subject 1, Day 2",+4.2
same,Redness Change,"skin; Subject 1, Day 6",+0.3
same,Redness Change,"skin; Subject 2, Day 1, patch applied for 24 hours",+3.5
same,Redness Change,"skin; Subject 2, Day 2",+2.3
same,Redness Change,"skin; Subject 2, Day 7",+0.6
O=C(O)/C=C/c1ccc(O)c(O)c1 [caffeic acid],solubility,Water solubility,< 1000 µg/mL
